The values below come from article PMC5702532 (Bioconjugate chemistry, 2016).

Bridge positions count the residues as written; N and C are the ends. Ends that are not written are not given here.

The subject of assay [1] is MCF-7, MDA-MB-231, A-549 and PC-3 cells. The assay is described as follows: Confocal fluorescence detection of cell entry in live carcinoma cells. The class given is cell-based, human. To be noted: 10 μM in media for 60 min; live cells washed 3×; confocal microscopy, TAMRA filter; breast (MCF-7, MDA-MB-231), lung (A-549), prostate (PC-3).
Assay [2] deals with XPNPEP1, APaseP human recombinant protein (Homo sapiens, UniProt Q9NQW7). The assay is described as follows: Biacore binding affinity assay.
Sequence of XPNPEP1, APaseP human recombinant protein (Q9NQW7 whole entry): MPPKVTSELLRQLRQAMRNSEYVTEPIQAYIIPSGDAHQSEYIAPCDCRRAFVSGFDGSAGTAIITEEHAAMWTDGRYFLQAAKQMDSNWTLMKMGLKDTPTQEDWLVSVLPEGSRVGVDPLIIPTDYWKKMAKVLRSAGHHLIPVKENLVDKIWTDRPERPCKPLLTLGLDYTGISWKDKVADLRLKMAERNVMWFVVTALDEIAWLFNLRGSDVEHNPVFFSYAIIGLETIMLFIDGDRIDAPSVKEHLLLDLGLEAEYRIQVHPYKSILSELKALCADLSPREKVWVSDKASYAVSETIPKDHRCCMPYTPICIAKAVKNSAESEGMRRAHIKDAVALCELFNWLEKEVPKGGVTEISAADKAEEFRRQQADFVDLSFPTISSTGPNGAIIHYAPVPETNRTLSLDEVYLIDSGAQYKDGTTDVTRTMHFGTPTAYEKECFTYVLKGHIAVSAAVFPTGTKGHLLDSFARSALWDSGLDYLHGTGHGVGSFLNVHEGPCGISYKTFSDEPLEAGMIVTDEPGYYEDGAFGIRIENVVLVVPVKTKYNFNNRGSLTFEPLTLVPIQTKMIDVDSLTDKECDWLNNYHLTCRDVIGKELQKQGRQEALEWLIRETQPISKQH

CPGPEGAGC (disulfide 1-9 (inferred)): the “Cell entry (fluorescence detection)” value in assay [1] is given as “did not enter breast-derived cells”.

With RPPGFSPFR [Bradykinin], the dissociation constant (Kd) (usually a measure of binding affinity in units of concentration) in assay [2] amounted to 15.3 ± 8 µM.
